Measurements reported in PMC9686653, “Bioengineered Nisin A Derivatives Display Enhanced Activity against Clinical Neonatal Pathogens” (Antibiotics, 2022).
“Also recorded” adds a separate entry of the source. Marks after values point to notes of the source that are not given here. Where no end group is shown, it is not given here.

Legend:
[1] = cited from earlier work
Text: NSR degrades nisin by cleaving the pept ...

[2] = tested on: S. agalactiae CIT 85; assay: Broth MIC assay; type: cell-based, Streptococcus agalactiae; details: from MIC
Procedure: (§1) MIC determinations were carried out in triplicate in 96-well microtiter plates (Sarstedt, Newton, NC, USA) as previously described. Initially, 200µL of 1% bovine serum albumin (BSA) (Sigma-Aldrich, St. Louis, MO, USA) (in PBS) was added to the plates which were incubated at 37 °C for 30 min. The solution was removed, plates were washed with 200 µL PBS and then air dried in a laminar flow hood. Target strains (Streptococcus agalactiae, Staphylococcus capitis and Lactococcus lactis) were grown overnight in suitable media under appropriate conditions and were subsequently sub-cultured into fresh broth and allowed to grow to an optical density of ~0.5 (OD600). The culture was then diluted to a final concentration of 10^5 CFU mL^−1 in a volume of 1 mL. The peptides were resuspended in appropriate media to a stock concentration of […] (S. agalactiae and S. capitis strains) and […] (L. lactis strains). Nisin A and nisin derivatives were adjusted to a starting concentration of 15 µM (S. agalactiae and S. capitis strains) or 5 µM (L. lactis strains). […] An aliquot of 100 µL of peptides and or antibiotics were added to the first well, mixed and then 2-fold serial dilutions of each peptide were made in TSBYE broth. Then, 100 µL of target strain was added to each test well, and the plates were incubated at 30 °C or 37 °C for 16 h. The MIC was read as the lowest peptide concentration causing inhibition of visible growth. Experiments were performed in triplicate.

[3] = tested on: S. capitis AY41; assay: microbe, parasite or virus in culture; type: cell-based, Staphylococcus capitis
Procedure: as §1

[4] = tested on: S. capitis BA06; assay: Broth MIC assay; type: cell-based, Staphylococcus capitis; details: from MIC
Procedure: as §1

[5] = tested on: S. agalactiae strains; assay: Broth MIC assay, summary over isolates; type: cell-based, Streptococcus agalactiae; details: four of the five S. agalactiae strains; from MIC
Procedure: as §1

[6] = tested on: S. capitis strains; assay: Broth MIC assay, summary over isolates; type: cell-based, Staphylococcus capitis; details: some strains of S. capitis; purified peptides
Procedure: as §1, with “Then, 100 µL of target strain was added to each test well, and the plates were incubated at 30 °C or 37 °C for 16 h.” left out, “Experiments were performed in triplicate.” left out

[7] = tested on: S. capitis AV80; assay: Time-kill curve analysis; type: cell-based, Staphylococcus capitis; details: nisin peptides […] (1/4 MIC), ampicillin 3.75 µg/mL (1/4 MIC); re-growth after 6 h
Procedure: The means and standard deviations of three independent determinations are presented.
During incubation, 100µL of each sample was taken at 0, 2, 4, 6 and 24 h. Cell growth was assessed by performing viable cell counts by diluting cultures in PBS solution and enumeration on TSBYE plates. Synergism was defined as ≥2 log10 CFU/mL reduction with the combination of antimicrobials relative to either antimicrobial alone after 24 h. A 1–2 log10 reduction in CFU/mL was defined as an additive effect and an increase or decrease of <1 log10 was defined as an indifferent effect. An antagonistic effect was defined as >2 log10 increase in CFU/mL after 24 h [28]. Experiments were performed in triplicate.

[8] = tested on: clinical isolates of S. agalactiae (n = 5) and S. capitis (n = 5); assay: Deferred antagonism agar-based assay; type: cell-based, Streptococcus agalactiae, Staphylococcus capitis; details: pathogenic indicators, n = 10; listed as nisin PV
Procedure: All plates were supplemented with sub-inhibitory concentration (10 µg/L) of nisin in the form of nisaplin to ensure induction of the nisin mutants.
Site-saturation mutagenesis of three codons, including threonine, lysine and methionine, at positions 2, 12 and 17 of the nisA gene, was carried out as described previously. Briefly, pDF23 (pCI372-PV) was used as a template and oligonucleotides, NisT2deg-FOR and REV, NisK12deg-FOR and REV and Nis17deg-FOR and REV, containing an NNK codon potentially encoding for all twenty standard amino acids. Deferred antagonism agar-based assays were employed to assess the bioactivity of the nisin derivatives (PV, K12X-PV, T2X-PV, and M17X-PV) produced by each strain. Briefly, fresh overnight cultures of each L. lactis test culture was replicated on GM17/TSBYE agar plates containing 0.1% nisaplin using a 96-pin replicator (Boekel, Feasterville, PA, USA) and incubated overnight at 30 °C before being exposed to ultraviolet radiation for 45 min. The plates were then overlayed with GM17/TYSBYE agar (0.75% agar) and seeded (0.5% inoculum) with either Lactococcus lactis MG1614 (NSR-), the nisin resistance protein-expressing indicator strain L. lactis MG1614 pNP40 (NSR+) or TSBYE agar seeded with Staphylococcus capitis (NSR+) or Streptococcus agalactiae (NSR+) isolates. […]

[9] = tested on: nisin resistance protein (NSR); details: cited from earlier work

| Compound | decrease in antimicrobial activity compared to nisin [1] | fold decrease in potency compared to nisin A [2] | MIC ([3]; 16 h) | fold increase in potency compared to nisin A ([3]; from MIC) | fold increase in potency compared to nisin A [4] | fold increase in potency compared to nisin A [5] | fold more active compared to nisin A [6] | time-kill outcome of single treatments [7] | bioactivity (zone of inhibition) of the producing strain [8] | susceptibility to proteolytic cleavage by NSR [9] |
| --- | --- | --- | --- | --- | --- | --- | --- | --- | --- | --- |
| nisin 1–28: truncated nisin structure left after NSR cleavage (ITSISLCTPGCKTGALMGCNMKTATCHC; ends and bridges not checked; also: lantibiotic thioether rings (Lan/MeLan) and dehydro residues, places not given here; UniProt P13068 24-51, looked up, fragment) | up to 100 fold |  |  |  |  |  |  |  |  |  |
| C=C(NC(=O)[C@@H](NC(=O)[C@H](Cc1c[nH]cn1)NC(=O)[C@@H](NC(=O)[C@@H]1CCCN1C(=O)[C@@H]1CS[C@@H](C)[C@H]2NC(=O)[C@H](C)NC(=O)[C@H](NC(=O)[C@H](CCCCN)NC(=O)[C@H](CCSC)NC(=O)[C@H](CC(N)=O)NC(=O)[C@@H]3CS[C@@H](C)[C@@H](NC(=O)[C@H](CCCCN)NC(=O)[C@@H]4CS[C@@H](C)[C@@H](NC(=O)[C@@H]5CSC[C@@H](NC(=O)/C(=C/C)NC(=O)[C@@H](N)[C@@H](C)CC)C(=O)N[C@@H]([C@@H](C)CC)C(=O)NC(=C)C(=O)N[C@@H](CC(C)C)C(=O)N5)C(=O)N5CCC[C@H]5C(=O)NCC(=O)N4)C(=O)NCC(=O)N[C@@H](C)C(=O)N[C@@H](CC(C)C)C(=O)N[C@@H](CCSC)C(=O)NCC(=O)N3)[C@H](C)SC[C@H](NC2=O)C(=O)N[C@@H](Cc2c[nH]cn2)C(=O)N1)C(C)C)C(C)C)C(=O)N[C@@H](CCCCN)C(=O)O [PV] |  | 2 fold | 6 * µg/mL | 4 fold | 2 fold | 2 fold | 2–4 fold | inhibited bacterial growth over 4 h | improved antimicrobial activity against all strains tested; also recorded: greatest bioactivity against the majority of pathogenic indicators | resist proteolytic cleavage by NSR |
